One data set deals with HT 1080 cells (FR−). The data set is described as follows: Flow cytometry uptake (Pyro fluorescence), HT 1080 cells. The class given is cell-based, human. The method, then:
(§1) Flow cytometry experiments. KB, HT 1080, and CHO cells were seeded in T25 flasks (each flask 10^6 cells) and grown for 1 day in complete MEM (KB cells and HT 1080 cells) or complete F12K (CHO cells) medium. […] The cells were detached by 0.25% Trypsin-EDTA, fixed by 1% formaldehyde (methanol free) in PBS, resuspended in 1 mL of PBS and immediately analyzed on a BD LSRII machine at the Flow Cytometry Laboratory, Abramson Cancer Center at the University of Pennsylvania focusing on Pyro fluorescence (exc. 633 nm, em. 695 nm).
In general terms: Flow cytometry measures light scatter and fluorescence of single cells or particles in a stream.

A further data set relates to CHO cells (FR−). Nature of the data set: Flow cytometry uptake (Pyro fluorescence), CHO cells. The data set is classed as cell-based, Chinese hamster. How it is done: as §1
A further data set concerns KB cells (FR+). The data set is described as follows: Flow cytometry uptake (Pyro fluorescence), KB cells. The data set is classed as cell-based, human. The method, then: as §1
Data set [1] is classed as physicochemical. How it is done:
Pyro-[…] (PP) Pyro-[…]-Folate (PPF) were purified by HPLC (Waters 600 Controller with a 2996 Photodiode Array Detector). The eluents were A=0.1M TEAA (pH 7) and B=acetonitrile and the method used for all injections was 90% of A and 10% of B to 100% of B in 45 minutes with flow 1.5 mL/min on a Zorbax 300SB-C3 column The coupling reagents HBTU (O-(Benzotriazol-1-yl)-N,N,N′,N′-tetramethyluronium hexafluorophosphate) and HOBt (1-Hydroxybenzotriazole) were purchased from Fluka and ACROS respectively. MALDI-ToF was measured on an Applied Biosystems Voyager DE Mass Spectrometer and fluorescence was measured on a Perkin Elmer LS50B Luminescence Spectrometer. We acquired confocal images using a Leica TCS SP2 Confocal Microscope and Xenogen images at the Bioluminescence Molecular Imaging Core facility at UPenn on an IVIS Xenogen Imager. KB cells (human epidermal cancer cells; folate receptor positive), HT 1080 cells (human fibrosarcoma cells; folate receptor negative), and CHO (Chinese hamster ovary cells; folate receptor negative) were purchased from ATCC. […]

Take Pyro-K-Folate [PKF]: in the data set on HT 1080 cells (FR−), the “uptake efficiency PPF versus PKF in HT 1080 cells” value is “with the same efficiency”. Further, in the data set on CHO cells (FR−), the “uptake efficiency PPF versus PKF in CHO cells” value is listed as “with the same efficiency”. In the data set on KB cells (FR+), the “uptake efficiency into KB cells relative to Pyro-GDEVDGSGK-Folate” value is 50%. Moreover, in data set [1], the “solubility in water compared with PPF” value is on record as “less soluble in water”. In addition, in data set [1] (HPLC), the “hydrophobicity (HPLC) compared with PPF” value is recorded as “more hydrophobic”.

Source of the values: patent US20100075899A1, “TARGETED PHOTODYNAMIC THERAPY AGENT” (TRUSTEES OF THE UNIVERSITY OF PENNSYLVANIA, priority 2006, published 2010).
